Experimental data: ChEMBL document CHEMBL1127628, “A new arylpiperazine antipsychotic with high D2/D3/5-HT1A/alpha 1A-adrenergic affinity and a low potential for extrapyramidal effects” (J Med Chem, 1994)
One block for each compound: values may come before it.

Tests used:
[1] = molecular target: T1, 5-hydroxytryptamine receptor 1A (Rattus norvegicus, UniProt P19327)
T1 sequence (P19327 whole entry): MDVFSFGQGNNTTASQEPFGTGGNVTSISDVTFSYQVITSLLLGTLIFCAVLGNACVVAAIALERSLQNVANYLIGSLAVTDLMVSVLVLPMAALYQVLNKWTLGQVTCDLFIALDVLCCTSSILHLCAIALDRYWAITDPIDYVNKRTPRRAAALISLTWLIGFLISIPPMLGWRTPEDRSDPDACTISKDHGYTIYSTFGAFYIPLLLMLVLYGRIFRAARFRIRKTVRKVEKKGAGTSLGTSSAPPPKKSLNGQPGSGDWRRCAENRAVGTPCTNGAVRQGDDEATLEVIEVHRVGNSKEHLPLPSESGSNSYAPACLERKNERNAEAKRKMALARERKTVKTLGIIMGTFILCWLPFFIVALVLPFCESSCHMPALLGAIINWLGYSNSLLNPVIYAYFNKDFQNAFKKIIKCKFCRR
Description: Binding affinity towards 5-hydroxytryptamine 1A receptor of rat brain synaptosomal preparations

[2] = molecular target: T2, Adrenergic receptor alpha-2 (Rattus norvegicus, UniProt P22086+P19328+P22909)
T2 sequence (P22086 whole entry): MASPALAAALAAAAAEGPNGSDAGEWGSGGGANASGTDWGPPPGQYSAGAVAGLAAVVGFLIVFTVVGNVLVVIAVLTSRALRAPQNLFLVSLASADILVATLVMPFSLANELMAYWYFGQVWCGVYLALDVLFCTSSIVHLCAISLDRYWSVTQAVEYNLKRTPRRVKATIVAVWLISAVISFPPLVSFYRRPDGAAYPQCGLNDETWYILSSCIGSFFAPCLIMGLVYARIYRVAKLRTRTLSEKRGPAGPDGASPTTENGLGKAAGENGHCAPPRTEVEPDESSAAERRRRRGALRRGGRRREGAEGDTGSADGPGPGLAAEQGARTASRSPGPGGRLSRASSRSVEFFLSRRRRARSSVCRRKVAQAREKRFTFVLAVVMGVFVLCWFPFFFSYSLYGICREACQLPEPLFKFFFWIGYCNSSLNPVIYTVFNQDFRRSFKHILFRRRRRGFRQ
T2 sequence (P19328 whole entry): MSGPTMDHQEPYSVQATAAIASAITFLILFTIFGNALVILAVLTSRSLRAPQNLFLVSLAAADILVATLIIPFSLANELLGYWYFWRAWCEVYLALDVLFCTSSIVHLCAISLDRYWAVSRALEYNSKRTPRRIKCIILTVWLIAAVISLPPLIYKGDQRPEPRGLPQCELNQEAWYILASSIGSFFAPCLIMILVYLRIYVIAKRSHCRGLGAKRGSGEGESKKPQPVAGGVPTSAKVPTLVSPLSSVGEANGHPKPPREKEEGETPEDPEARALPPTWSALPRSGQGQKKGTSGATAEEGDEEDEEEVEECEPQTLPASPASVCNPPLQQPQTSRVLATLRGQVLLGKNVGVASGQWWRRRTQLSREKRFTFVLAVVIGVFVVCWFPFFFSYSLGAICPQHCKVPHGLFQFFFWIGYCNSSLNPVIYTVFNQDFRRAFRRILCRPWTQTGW
T2 sequence (P22909 whole entry): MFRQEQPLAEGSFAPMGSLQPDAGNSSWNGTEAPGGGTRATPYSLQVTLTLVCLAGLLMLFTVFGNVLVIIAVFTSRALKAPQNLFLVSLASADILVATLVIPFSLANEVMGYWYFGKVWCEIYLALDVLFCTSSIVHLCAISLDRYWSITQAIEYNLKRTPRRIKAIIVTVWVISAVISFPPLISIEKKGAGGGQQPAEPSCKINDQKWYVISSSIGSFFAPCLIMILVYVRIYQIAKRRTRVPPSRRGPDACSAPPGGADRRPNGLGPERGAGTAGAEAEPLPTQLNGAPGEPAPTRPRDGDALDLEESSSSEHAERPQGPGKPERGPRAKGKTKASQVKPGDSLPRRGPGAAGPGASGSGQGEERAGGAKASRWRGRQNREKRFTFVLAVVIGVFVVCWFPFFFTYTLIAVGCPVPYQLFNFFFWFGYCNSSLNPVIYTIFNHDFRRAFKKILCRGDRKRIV
Description: Binding affinity towards alpha-2 adrenergic receptors in rat brain synaptosomal preparations

[3] = molecular target: T3, Adrenergic receptor alpha-1 (Rattus norvegicus, UniProt P15823+P23944+P43140); test: Binding affinity towards alpha-1 adrenergic receptors in rat brain synaptosomal preparations; format: tissue-based
T3 sequence (P15823 whole entry): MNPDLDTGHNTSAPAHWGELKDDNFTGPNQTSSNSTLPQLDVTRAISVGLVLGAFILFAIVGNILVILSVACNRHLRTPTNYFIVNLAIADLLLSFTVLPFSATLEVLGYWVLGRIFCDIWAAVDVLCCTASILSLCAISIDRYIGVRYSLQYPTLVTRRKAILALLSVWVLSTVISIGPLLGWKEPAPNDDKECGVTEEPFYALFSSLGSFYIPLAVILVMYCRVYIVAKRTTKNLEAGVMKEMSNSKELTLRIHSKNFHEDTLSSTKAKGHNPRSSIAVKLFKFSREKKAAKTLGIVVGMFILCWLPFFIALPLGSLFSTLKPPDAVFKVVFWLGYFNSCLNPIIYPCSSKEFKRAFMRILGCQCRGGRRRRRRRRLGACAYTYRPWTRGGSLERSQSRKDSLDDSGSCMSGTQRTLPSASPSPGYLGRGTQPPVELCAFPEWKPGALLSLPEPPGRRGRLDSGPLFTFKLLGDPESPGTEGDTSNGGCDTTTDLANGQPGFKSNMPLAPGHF
T3 sequence (P23944 whole entry): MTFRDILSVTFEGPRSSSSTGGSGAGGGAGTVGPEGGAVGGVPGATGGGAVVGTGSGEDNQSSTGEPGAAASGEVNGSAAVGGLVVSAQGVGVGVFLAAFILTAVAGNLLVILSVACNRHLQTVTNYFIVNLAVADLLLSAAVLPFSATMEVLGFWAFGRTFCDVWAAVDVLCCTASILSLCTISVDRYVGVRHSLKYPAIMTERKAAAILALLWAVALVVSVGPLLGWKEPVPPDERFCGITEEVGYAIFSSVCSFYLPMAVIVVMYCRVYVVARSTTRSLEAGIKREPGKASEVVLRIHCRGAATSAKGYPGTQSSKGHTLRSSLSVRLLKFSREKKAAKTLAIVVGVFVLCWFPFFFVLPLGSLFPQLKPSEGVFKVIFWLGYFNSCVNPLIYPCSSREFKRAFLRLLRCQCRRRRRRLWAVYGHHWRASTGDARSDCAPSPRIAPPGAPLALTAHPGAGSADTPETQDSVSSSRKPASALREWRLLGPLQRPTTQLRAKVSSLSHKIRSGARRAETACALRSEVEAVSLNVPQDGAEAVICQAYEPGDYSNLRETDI
T3 sequence (P43140 whole entry): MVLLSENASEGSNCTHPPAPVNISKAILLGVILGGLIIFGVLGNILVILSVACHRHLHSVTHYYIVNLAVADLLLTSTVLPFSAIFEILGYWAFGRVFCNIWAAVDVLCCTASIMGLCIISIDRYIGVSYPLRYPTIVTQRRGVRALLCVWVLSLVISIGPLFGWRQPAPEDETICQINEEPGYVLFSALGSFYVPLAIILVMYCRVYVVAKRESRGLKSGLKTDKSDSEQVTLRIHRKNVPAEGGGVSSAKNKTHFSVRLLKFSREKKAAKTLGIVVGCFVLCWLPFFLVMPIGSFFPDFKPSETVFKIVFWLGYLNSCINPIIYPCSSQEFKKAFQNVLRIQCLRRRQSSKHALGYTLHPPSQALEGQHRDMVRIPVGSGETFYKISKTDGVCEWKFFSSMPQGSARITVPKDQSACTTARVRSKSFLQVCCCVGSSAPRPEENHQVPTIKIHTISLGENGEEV

D(2) dopamine receptor = D(2) dopamine receptor (Rattus norvegicus, UniProt P61169); test: Binding affinity towards dopamine D2 receptors in rat brain synaptosomal preparations; format: tissue-based
Rattus norvegicus [4] = species: Rattus norvegicus; test: The compound was evaluated for the conditioned avoidance response data (CAR) in rat intra peritoneally; format: functional
[5] = molecular target: Sigma non-opioid intracellular receptor 1 (Rattus norvegicus, UniProt Q9R0C9); test: Binding affinity towards sigma receptors
Rattus norvegicus [6] = test: The compound was evaluated for the conditioned avoidance response data (CAR) in rat intravenous administration at 0.66 mg/kg concentration; format: functional
[7] = molecular target: Muscarinic acetylcholine receptor; test: Binding affinity towards muscarinic receptors; format: protein assay, Rattus norvegicus
Rattus norvegicus [8] = test: The compound is evaluated for induction of catalepsy in rats at a dose of 100 mg/kg after peroral administration; format: functional; conditions: route oral
Rattus norvegicus [9] = test: The compound was evaluated for the conditioned avoidance response data (CAR) in rat peroral administration; format: functional; conditions: po
[10] = molecular target: Serotonin 2 (5-HT2) receptor (Rattus norvegicus, UniProt P30994+P08909+P14842); test: Binding affinity towards 5-hydroxytryptamine 2 receptor; format: protein assay
[11] = molecular target: 5-hydroxytryptamine receptor 1B (Rattus norvegicus, UniProt P28564); test: Binding affinity towards 5-hydroxytryptamine 1B receptor
D(3) dopamine receptor = D(3) dopamine receptor (Rattus norvegicus, UniProt P19020); test: Binding affinity towards baculovirus expressed rat dopamine D3 receptors
D(1B) dopamine receptor = D(1B) dopamine receptor (Rattus norvegicus, UniProt P25115); test: Binding affinity towards Dopamine receptor D5 (rat clone)
Mus musculus = test: The compound is evaluated for inhibition of apomorphine induced climbing behavior in mice after peroral administration; format: functional; conditions: po
[12] = Partition coefficient (logP); format: physicochemical; conditions: octanol/water
D(1A) dopamine receptor = D(1A) dopamine receptor (Homo sapiens, UniProt P21728); test: Binding affinity towards dopamine receptor D1 (human clone)
Canis familiaris = test: The compound is evaluated for inhibition of apomorphine induced emesis in dogs after peroral administration; format: functional, Canis lupus familiaris
Rattus norvegicus [13] = test: The compound is evaluated for inhibition of 8-OH-DPAT induced reciprocal forepaw treading in reserpinized rats after intraperitoneal administration; format: functional; conditions: ip

Chain of D(2) dopamine receptor (P61169 whole entry): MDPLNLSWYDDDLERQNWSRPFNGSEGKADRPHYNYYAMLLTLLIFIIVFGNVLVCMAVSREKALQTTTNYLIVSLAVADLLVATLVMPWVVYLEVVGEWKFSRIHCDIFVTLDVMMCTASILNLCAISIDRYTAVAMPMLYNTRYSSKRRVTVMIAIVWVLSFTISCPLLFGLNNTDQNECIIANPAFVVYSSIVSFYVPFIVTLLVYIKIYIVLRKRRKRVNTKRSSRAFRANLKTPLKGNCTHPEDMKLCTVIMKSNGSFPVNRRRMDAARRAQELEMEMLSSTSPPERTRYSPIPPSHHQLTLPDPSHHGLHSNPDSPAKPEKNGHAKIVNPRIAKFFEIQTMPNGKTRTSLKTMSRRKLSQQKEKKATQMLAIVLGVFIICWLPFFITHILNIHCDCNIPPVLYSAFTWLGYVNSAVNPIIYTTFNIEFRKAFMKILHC
Chain of 5-hydroxytryptamine receptor 1B (P28564 whole entry): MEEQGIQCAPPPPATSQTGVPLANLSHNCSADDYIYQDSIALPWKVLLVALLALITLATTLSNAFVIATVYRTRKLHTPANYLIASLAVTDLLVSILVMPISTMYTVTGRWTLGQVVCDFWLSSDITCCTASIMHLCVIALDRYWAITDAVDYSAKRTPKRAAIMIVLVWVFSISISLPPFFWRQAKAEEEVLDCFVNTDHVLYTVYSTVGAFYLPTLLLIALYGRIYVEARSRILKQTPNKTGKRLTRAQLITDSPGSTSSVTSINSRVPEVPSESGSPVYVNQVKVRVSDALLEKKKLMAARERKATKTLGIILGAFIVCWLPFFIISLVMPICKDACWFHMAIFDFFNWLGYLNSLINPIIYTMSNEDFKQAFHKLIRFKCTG
Chain of D(3) dopamine receptor (P19020 whole entry): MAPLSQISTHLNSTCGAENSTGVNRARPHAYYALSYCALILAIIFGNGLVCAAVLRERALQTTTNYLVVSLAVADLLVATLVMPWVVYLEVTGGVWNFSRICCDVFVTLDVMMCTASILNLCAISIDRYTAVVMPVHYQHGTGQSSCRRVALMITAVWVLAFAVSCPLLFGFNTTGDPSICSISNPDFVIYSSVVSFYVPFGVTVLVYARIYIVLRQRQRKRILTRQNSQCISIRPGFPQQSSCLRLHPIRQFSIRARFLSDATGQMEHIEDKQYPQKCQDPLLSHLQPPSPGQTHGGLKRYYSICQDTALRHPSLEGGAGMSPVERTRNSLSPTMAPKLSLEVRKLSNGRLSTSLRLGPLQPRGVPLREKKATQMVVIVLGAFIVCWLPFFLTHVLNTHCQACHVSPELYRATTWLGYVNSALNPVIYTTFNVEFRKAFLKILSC
Chain of D(1A) dopamine receptor (P21728 whole entry): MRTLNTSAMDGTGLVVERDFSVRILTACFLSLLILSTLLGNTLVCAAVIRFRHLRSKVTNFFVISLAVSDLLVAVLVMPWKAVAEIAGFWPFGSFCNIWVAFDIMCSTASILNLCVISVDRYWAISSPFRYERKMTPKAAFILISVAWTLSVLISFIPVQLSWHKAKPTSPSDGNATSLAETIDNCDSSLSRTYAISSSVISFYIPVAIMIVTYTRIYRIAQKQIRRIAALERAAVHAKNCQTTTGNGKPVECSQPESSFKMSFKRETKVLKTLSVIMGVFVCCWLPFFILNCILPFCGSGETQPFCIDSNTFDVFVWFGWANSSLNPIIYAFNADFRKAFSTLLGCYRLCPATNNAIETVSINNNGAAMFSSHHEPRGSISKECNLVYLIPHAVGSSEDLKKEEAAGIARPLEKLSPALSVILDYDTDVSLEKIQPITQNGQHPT
Chain of Sigma non-opioid intracellular receptor 1 (Q9R0C9 whole entry): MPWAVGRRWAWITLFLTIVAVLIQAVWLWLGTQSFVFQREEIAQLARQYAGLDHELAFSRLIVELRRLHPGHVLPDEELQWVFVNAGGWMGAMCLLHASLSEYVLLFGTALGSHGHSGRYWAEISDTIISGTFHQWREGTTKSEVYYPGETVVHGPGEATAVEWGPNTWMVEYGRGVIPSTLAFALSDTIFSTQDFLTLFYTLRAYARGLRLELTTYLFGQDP
Chain of D(1B) dopamine receptor (P25115 whole entry): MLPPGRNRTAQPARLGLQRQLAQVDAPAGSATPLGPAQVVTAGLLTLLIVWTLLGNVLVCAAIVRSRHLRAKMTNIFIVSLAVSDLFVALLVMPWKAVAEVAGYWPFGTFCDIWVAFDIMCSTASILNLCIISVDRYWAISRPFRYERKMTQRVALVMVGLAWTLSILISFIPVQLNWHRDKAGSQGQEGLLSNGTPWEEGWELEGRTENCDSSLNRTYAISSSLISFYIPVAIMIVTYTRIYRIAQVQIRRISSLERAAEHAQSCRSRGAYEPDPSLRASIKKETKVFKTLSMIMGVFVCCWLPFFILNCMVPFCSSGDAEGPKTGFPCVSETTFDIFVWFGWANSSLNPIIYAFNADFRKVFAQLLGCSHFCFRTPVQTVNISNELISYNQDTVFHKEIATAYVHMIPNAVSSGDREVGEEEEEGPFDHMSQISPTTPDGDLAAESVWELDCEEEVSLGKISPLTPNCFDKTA

Structure (SMILES): CC(C)Oc1ccccc1N1CCN(Cc2ccccc2C(=O)N2CCCCC2)CC1
Ki [1]: 6.8 nM
Ki [2]: 16 nM
Ki [3]: 220 nM
Ki (D(2) dopamine receptor): 37 nM

Ki [1]: 560 nM
Ki [3]: 3 nM
Ki (D(2) dopamine receptor): 100 nM
Structure (SMILES): CC(C)Oc1ccccc1N1CCN(Cc2ccc(C(=O)N3CCCCC3)cc2)CC1

Ki [2]: 1000 nM
Structure (SMILES): CC(C)Oc1ccccc1N1CCN(Cc2ccc(CN3CCCCC3=O)cc2)CC1

Structure (SMILES): CN1CCN(C2=Nc3cc(Cl)ccc3Nc3ccccc32)CC1 [CLOZAPINE]
ED50 (Rattus norvegicus [4]): 4 mg/kg

Structure (SMILES): CC(C)Oc1ccccc1N1CCN(Cc2cccc(C(=O)N3CCCCC3)c2)CC1 [MAZAPERTINE]
Ki [5]: > 5000 nM
Ki [2]: 17 nM
ED50 (Rattus norvegicus [6]): 0.23 mg/kg
Ki [7]: > 5000 nM
Catalepsy (Rattus norvegicus [8]): 30%
ED50 (Rattus norvegicus [9]): 13.8 mg/kg
Ki [10]: 165 nM
Ki [11]: 2880 nM
Ki (D(3) dopamine receptor): 1.8 nM
Ki (D(1B) dopamine receptor): > 5000 nM
ED50 (Mus musculus): 0.6 mg/kg
logP [12]: 4
Ki (D(1A) dopamine receptor): > 5000 nM
ED50 (Canis familiaris): 0.038 mg/kg
ED50 (Rattus norvegicus [13]): 5.24 mg/kg
